Laboratory results: ChEMBL document CHEMBL5150077, “Identification of TUL01101: A Novel Potent and Selective JAK1 Inhibitor for the Treatment of Rheumatoid Arthritis” (J Med Chem, 2022)

Assays:
Homo sapiens [1] = species: Homo sapiens; experiment: Selectivity index, ratio of IC50 for inhibition of recombinant human TYK2 to IC50 for inhibition of recombinant human JAK1
Homo sapiens [2] = species: Homo sapiens; experiment: Selectivity index, ratio of IC50 for inhibition of recombinant human JAK2 to IC50 for inhibition of recombinant human JAK1
[3] = biological target: T1, Tyrosine-protein kinase JAK3 (Homo sapiens, UniProt P52333); experiment: Inhibition of recombinant human JAK3 using GGEEEEYFELVKKKK as substrate incubated for 40 mins in presence of Mg/ATP mixture by [gamma p33]-ATP based scintillation counting method
T1 sequence (P52333 whole entry): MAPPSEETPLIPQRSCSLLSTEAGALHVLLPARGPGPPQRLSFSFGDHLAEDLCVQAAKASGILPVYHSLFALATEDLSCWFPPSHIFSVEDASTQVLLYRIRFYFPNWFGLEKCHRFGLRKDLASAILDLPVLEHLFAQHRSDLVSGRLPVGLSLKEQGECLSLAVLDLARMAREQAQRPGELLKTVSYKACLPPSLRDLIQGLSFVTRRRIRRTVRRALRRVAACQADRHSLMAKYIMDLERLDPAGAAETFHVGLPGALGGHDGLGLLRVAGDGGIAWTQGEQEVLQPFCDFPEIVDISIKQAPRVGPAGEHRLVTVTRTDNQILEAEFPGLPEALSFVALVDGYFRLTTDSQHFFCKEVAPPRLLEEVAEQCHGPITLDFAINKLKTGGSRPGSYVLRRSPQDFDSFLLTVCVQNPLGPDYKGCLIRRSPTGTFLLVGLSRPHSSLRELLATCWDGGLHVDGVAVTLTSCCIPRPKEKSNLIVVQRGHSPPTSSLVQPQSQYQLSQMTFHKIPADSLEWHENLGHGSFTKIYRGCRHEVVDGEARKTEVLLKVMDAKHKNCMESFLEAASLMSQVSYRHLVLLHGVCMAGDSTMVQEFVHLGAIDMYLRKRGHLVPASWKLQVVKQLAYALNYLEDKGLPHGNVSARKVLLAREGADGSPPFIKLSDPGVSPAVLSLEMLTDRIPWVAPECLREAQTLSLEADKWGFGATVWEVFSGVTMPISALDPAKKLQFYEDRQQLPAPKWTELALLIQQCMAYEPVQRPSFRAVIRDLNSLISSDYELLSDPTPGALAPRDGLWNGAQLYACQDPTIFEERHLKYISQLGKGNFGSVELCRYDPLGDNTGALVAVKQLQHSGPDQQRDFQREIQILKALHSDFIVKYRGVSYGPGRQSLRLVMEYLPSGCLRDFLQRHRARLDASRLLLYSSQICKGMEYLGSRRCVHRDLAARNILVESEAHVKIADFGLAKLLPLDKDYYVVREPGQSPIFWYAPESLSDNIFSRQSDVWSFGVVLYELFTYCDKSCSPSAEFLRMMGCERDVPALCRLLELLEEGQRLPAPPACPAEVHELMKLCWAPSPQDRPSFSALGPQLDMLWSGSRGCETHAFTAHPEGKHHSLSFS

[4] = biological target: Tyrosine-protein kinase JAK1 (Homo sapiens, UniProt P23458); experiment: Inhibition of recombinant human JAK1 using MGEEPLYWSFPAKKK as substrate incubated for 40 mins in presence of Mg/ATP mixture by [gamma p33]-ATP based scintillation counting method
[5] = biological target: Non-receptor tyrosine-protein kinase TYK2 (Homo sapiens, UniProt P29597); experiment: Inhibition of recombinant human TYK2 using GGMEDIYFEFMGGKKK as substrate incubated for 40 mins in presence of Mg/ATP mixture by [gamma p33]-ATP based scintillation counting method
[6] = biological target: Tyrosine-protein kinase JAK2 (Homo sapiens, UniProt O60674); experiment: Inhibition of recombinant human JAK2 using KTFCGTPEYLAPEVRREPRILSEEEQEMFRDFDYIADWC as substrate incubated for 40 mins in presence of Mg/ATP mixture by [gamma p33]-ATP based scintillation counting method
Chain of Tyrosine-protein kinase JAK2 (O60674 whole entry): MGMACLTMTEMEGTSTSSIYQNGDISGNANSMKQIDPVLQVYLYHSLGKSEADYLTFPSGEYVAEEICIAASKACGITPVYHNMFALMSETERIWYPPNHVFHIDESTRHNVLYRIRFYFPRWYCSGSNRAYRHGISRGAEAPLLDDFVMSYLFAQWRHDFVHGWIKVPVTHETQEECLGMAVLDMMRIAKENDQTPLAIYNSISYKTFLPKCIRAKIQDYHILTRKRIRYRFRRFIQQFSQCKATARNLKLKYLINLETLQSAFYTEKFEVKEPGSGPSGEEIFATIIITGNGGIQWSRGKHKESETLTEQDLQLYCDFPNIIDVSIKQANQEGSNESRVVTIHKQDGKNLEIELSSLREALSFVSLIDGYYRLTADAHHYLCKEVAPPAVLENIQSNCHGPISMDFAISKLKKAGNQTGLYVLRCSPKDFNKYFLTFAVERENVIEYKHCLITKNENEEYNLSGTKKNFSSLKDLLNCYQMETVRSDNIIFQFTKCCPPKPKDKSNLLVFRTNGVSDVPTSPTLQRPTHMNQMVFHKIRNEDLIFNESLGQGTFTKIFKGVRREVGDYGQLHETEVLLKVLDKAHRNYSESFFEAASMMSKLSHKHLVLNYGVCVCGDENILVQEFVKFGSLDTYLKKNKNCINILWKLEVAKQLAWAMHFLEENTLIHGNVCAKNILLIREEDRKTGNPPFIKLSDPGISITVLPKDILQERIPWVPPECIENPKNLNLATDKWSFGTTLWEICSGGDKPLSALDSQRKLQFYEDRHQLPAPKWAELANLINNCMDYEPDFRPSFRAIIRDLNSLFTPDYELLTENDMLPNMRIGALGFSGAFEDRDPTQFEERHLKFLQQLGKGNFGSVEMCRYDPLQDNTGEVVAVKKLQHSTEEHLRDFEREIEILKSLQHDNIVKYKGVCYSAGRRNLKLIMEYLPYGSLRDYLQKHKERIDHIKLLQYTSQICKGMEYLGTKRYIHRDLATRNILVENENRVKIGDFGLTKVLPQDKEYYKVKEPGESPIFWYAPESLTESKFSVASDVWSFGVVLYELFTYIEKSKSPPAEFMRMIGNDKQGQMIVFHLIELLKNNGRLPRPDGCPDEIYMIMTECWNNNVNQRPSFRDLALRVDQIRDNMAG

Chain of Tyrosine-protein kinase JAK1 (P23458 whole entry): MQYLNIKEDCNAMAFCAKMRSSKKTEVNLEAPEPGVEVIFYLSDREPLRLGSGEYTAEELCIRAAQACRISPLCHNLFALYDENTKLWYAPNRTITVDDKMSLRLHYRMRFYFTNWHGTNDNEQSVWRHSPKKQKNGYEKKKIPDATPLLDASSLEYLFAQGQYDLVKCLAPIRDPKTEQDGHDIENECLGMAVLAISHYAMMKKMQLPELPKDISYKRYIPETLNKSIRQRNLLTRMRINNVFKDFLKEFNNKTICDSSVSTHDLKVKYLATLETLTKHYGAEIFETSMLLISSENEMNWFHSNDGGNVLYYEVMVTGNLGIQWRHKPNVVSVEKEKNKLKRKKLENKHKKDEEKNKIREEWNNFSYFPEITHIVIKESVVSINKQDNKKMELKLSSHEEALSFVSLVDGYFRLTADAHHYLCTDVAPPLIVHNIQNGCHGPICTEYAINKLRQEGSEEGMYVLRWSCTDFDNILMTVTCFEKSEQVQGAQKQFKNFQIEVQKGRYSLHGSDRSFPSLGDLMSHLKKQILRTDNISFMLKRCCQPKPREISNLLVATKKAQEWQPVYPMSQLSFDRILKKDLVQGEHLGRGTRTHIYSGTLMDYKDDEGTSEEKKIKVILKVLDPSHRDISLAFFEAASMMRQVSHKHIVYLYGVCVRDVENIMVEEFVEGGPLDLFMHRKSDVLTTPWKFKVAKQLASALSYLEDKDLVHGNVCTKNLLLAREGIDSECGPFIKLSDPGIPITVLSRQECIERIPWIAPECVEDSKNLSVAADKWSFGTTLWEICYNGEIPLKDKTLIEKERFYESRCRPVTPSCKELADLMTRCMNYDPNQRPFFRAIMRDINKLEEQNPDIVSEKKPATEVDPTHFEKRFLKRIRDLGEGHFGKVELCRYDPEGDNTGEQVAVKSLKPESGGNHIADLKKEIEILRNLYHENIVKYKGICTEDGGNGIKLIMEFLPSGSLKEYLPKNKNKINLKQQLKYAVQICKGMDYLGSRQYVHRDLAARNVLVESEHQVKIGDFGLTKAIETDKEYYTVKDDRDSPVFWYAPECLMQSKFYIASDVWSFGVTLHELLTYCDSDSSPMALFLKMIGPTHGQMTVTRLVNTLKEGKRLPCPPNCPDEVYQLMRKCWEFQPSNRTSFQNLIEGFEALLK
Chain of Non-receptor tyrosine-protein kinase TYK2 (P29597 whole entry): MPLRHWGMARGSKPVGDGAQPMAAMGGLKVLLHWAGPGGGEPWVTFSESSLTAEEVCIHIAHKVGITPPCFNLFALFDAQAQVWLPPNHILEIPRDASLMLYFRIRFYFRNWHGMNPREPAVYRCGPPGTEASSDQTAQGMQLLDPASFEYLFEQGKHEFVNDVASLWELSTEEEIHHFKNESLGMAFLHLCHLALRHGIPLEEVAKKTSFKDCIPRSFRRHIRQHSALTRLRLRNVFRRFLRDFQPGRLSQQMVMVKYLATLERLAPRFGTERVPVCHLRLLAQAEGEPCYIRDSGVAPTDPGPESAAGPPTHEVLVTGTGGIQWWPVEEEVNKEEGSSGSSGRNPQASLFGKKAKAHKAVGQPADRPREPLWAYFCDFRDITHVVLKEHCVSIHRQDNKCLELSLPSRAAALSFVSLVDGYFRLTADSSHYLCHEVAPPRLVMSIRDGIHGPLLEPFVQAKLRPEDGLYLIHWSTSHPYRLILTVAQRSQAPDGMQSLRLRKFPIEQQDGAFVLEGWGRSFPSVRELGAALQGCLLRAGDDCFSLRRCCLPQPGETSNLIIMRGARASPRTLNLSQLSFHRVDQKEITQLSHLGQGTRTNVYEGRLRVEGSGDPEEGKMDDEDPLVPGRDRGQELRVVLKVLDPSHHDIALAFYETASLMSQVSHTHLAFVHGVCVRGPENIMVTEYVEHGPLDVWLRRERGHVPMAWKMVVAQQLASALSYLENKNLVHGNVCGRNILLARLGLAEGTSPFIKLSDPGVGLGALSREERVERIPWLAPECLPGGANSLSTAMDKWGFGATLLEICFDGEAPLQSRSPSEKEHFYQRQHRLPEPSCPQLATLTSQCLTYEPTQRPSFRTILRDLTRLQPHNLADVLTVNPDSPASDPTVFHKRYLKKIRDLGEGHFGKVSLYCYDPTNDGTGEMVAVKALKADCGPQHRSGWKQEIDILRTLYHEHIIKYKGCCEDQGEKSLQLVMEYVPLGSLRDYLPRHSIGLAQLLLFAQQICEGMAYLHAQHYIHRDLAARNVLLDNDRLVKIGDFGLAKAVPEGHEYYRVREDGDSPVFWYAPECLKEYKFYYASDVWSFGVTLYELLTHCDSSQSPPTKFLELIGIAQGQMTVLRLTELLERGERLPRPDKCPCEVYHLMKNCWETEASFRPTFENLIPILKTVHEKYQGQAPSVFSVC

| SMILES | Ratio IC50 (Homo sapiens [1]) | Ratio IC50 (Homo sapiens [2]) | IC50 [3] | IC50 [4] | IC50 [5] | IC50 [6] |
| --- | --- | --- | --- | --- | --- | --- |
| N#CCN1CC2(CCC(c3cccc4nc(NC(=O)C5CC5)nn34)CC2)C1 | – | – | > 10000 nM | 114 nM | 581 nM | – |
| O=C(Nc1nc2cccc(C3CCC4(CC3)CCN(C(=O)[C@H]3CC3(F)F)C4)n2n1)C1CC1 (some centres undefined) | 9.2 | 10.5 | 7350 nM | 75 nM | 692 nM | 789 nM |
| N#CCCN1CC2(CCC(c3cccc4nc(NC(=O)C5CC5)nn34)CC2)C1 | – | – | > 10000 nM | 65 nM | 371 nM | – |
| N#CCC(=O)N1CCC2(CCC(c3cccc4nc(NC(=O)C5CC5)nn34)CC2)CC1 | 1.3 | 4 | 2320 nM | 20 nM | 26 nM | 80 nM |
| O=C(Nc1nc2cccc([C@@H]3CCC4(CCN(C(=O)[C@@H]5CC5(F)F)CC4)C3)n2n1)C1CC1 | 1.5 | 5 | > 10000 nM | 381 nM | 570 nM | 1920 nM |
| O=C(Nc1nc2cccc([C@@H]3CCC4(C3)CN(C(=O)[C@@H]3CC3(F)F)C4)n2n1)C1CC1 | – | – | > 10000 nM | 176 nM | 404 nM | – |
| O=C(Nc1nc2cccc(C3CCC4(CC3)CCN(C(=O)CC(F)(F)F)C4)n2n1)C1CC1 (centres undefined) | 11.6 | 20.8 | > 10000 nM | 131 nM | 1530 nM | 2730 nM |
| CC(C)(C#N)C(=O)N1CC2(CCC(c3cccc4nc(NC(=O)C5CC5)nn34)CC2)C1 | – | – | 9670 nM | 20 nM | 106 nM | – |
| O=C(Nc1nc2cccc([C@H]3CC[C@H](NC(=O)[C@H]4CC4(F)F)CC3)n2n1)C1CC1 | 16.9 | 23.7 | > 10000 nM | 341 nM | 5760 nM | 8070 nM |
| O=C(Nc1nc2cccc(C3CCC4(CC3)CCN(C(=O)CC(F)(F)F)CC4)n2n1)C1CC1 | 2.9 | 5.4 | > 10000 nM | 54 nM | 155 nM | 294 nM |
| O=C(Nc1nc2cccc([C@H]3CC[C@@H](NC(=O)[C@H]4CC4(F)F)CC3)n2n1)C1CC1 | 9.5 | 20 | > 10000 nM | 48 nM | 455 nM | 962 nM |
| N#CC1(C(=O)N2CC3(CCC(c4cccc5nc(NC(=O)C6CC6)nn45)CC3)C2)CC1 | – | – | > 10000 nM | 15 nM | 18 nM | – |

Second part, the compound after the results:

| Ratio IC50 (Homo sapiens [1]) | Ratio IC50 (Homo sapiens [2]) | IC50 [3] | IC50 [4] | IC50 [5] | IC50 [6] | SMILES |
| --- | --- | --- | --- | --- | --- | --- |
| 2 | 4.7 | – | – | – | – | O=C(Nc1nc2cccc(C3=CCN(C(=O)C4CC4)CC3)n2n1)C1CC1 |
| 8.4 | – | – | 163 nM | 1370 nM | – | O=C(Nc1nc2cccc(C3=CC[C@@H](NC(=O)[C@@H]4CC4(F)F)CC3)n2n1)C1CC1 |
| 3.6 | 11.9 | – | – | – | – | O=C(Nc1nc2cccc(C3=CCC(NC(=O)C4CC4(F)F)CC3)n2n1)C1CC1 (centres undefined) |
| 5.7 | – | – | 166 nM | 942 nM | – | O=C(Nc1nc2cccc(C3=CC[C@@H](NC(=O)[C@H]4CC4(F)F)CC3)n2n1)C1CC1 |
| – | – | > 10000 nM | 63 nM | 830 nM | – | O=C(Nc1nc2cccc([C@H]3CCC4(C3)CN(C(=O)[C@@H]3CC3(F)F)C4)n2n1)C1CC1 |
| 4.2 | 7.4 | – | – | – | – | O=C(Nc1nc2cccc(C3=CC[C@H](NC(=O)[C@H]4CC4(F)F)CC3)n2n1)C1CC1 |
| 5.4 | 2.1 | – | – | – | – | O=C(Nc1nc2cccc(C3=CCN(C(=O)C4(F)CC4)C3)n2n1)C1CC1 |
| 3.3 | 9.5 | – | – | – | – | O=C(Nc1nc2cccc(C3=CCC(NC(=O)C4CC4)CC3)n2n1)C1CC1 (centres undefined) |
| 3.3 | 7.7 | – | – | – | – | O=C(Nc1nc2cccc(C3CCC(NC(=O)C4CC4(F)F)CC3)n2n1)C1CC1 (centres undefined) |
| – | – | > 10000 nM | – | – | – | O=C(Nc1nc2cccc(C3=CCN(C(=O)C4CC4(F)F)C3)n2n1)C1CC1 (centres undefined) |
